The record followed here is patent US11596623B2, “Methods for treating virus infection or proliferation” (HOWARD UNIVERSITY, priority 2018, dated 2023).

Molecules are shown by their SMILES. Read-outs that look alike come from different tables or passages of the source.

The target in assay [1] is T1, RACK1A Y248 phosphorylation (Arabidopsis thaliana, UniProt O24456).
T1 construct: from tissue; host or cells: Arabidopsis seedlings or plants (wild type); lysates
As to the kind of experiment: ABA-induced RACK1A Y248 phosphorylation in seedlings, western blot. Type of assay: in vivo. Particulars: 10 μM ABA, 12 hours, one-week old seedlings. As to the method:
One-week old Arabidopsis seedlings were treated with 10 μM of stress hormone Abscisic acid (ABA) in the presence/absence of the inhibitor compounds for 12 hours in a growth chamber (overnight) at 22° C. Lysates were probed with an antibody raised to detect phosphorylated Y248 residue of RACK1A protein in Arabidopsis. Lysates from rack1a-1 knock-out mutant seedlings grown and treated similarly as the wild-type seedlings were used as a negative control. The compounds were dissolved in DMSO (D) and ABA was dissolved in methanol (M).
Proteins were separated by SDS-PAGE (25 μg loaded in each lane), transferred to nitrocellulose membranes (Amersham Inc., Piscataway, N.J., USA), and blocked with 5% nonfat milk for 60 min at room temperature. Membranes were incubated overnight at 4° C. with primary antibody, followed by incubation with a horseradish peroxidase-coupled secondary antibody and detection with enhanced chemiluminescence (Pierce, Rockford, Ill., USA), according to standard methods. Membranes were stripped with stripping buffer (100 mM 2-mercaptoethanol, 2% SDS, 62.5 mM Tris-HCl, pH 6.8), washed with PBS-0.1% Tween-20, and used to detect additional proteins. For Arabidopsis lysates one-week old seedlings were treated with 10 uM of ABA in the presence/absence of the inhibitor compounds for 12 hours in a growth chamber (overnight) at 22° C. mostly in the dark. […]
On the technique in general: Immunoblotting shows a protein as a band on a membrane.

The next assay deals with HSV1-Luc (R8411). As to the kind of experiment: HSV1-Luc bioluminescence luciferase assay in HEp-2 cells. Type of assay: cell-based, HSV-1. On the set-up: HSV-1 proliferation (luciferase signal): dose or concentration left out as unconfirmed. The method, then:
(A) Hep-2 cells were incubated with the indicated compounds in the presence of HSV1-Luc virus at a concentration of 4×10^6 pfu/ml media. (B) Quantification of the luciferase signal from the samples in panel (A). Signals from three replicates from two separate experiments were combined to generate the average and the standard error bar.
(§1) To 80-90% confluent HEp-2 cells, HSV-1-Luc (R8411) are added at a concentration of 2×10e^6 pfu/ml along with indicated concentration of inhibitor compounds. After the described incubation period, luciferase activity is evaluated from bioluminescence images acquired by a Perkin Elmer IVIS Spectrum Imaging system immediately after adding luciferase substrate (D-luciferin, Gold Bio Technology) at a concentration of 400 μg/mL in medium. Bioluminescence intensity in different wells is quantified in units of photons per second per centimetre squared per steradian (p/s/cm^2/sr) by drawing a polygonal region of interest over the signals in images using Living Image 3.0 software (Caliper Life Sciences).
as §1, with “cells, HSV1-Luc” for “cells, HSV-1-Luc”, “(R8411) was” for “(R8411) are”, “activity was” for “activity is”, “wells was” for “wells is”, “per centimeter” for “per centimetre”
To visualize the effect of the drugs on the proliferation of HSV-1, a luciferase tagged HSV-1 F strain expressing luciferase (R8411 mutant) under the control of ICP27 promoter was obtained [Horsburgh B C, Hubinette M M, Tufaro F. Genetic manipulation of herpes simplex virus using bacterial artificial chromosomes. Methods Enzymol. 1999; 306:337-52]. […] The same samples after incubation of 48 h were used to assay for HSV-1 ICP0 and RACK1 protein expression (B of FIG. 5). Depletion of RACK1 by the compounds correlated with the depletion of the viral ICP0 protein confirming earlier results shown in B of FIG. 3.

T1 sequence (O24456 whole entry): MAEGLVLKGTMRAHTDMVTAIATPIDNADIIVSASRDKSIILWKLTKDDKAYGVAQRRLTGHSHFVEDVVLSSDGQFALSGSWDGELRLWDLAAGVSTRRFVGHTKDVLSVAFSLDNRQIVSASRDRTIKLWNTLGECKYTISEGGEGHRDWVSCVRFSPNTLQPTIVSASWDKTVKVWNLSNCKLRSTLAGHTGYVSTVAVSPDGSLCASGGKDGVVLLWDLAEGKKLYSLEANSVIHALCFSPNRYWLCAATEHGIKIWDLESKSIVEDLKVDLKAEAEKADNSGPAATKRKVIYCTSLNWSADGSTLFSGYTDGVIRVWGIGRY

Regarding `Nn1c(S)nnc1-c1cc(Cl)cc(Cl)c1` [SD29-14], the “ABA-induced RACK1A Y248 phosphorylation” value in assay [1] is recorded as “prevented the ABA-induced Y248 phosphorylation”. For the same compound, the “HSV-1 proliferation (luciferase signal)” value in the assay on HSV1-Luc (R8411) is on record as “significantly inhibited the HSV-1 proliferation”; in the assay with HSV1-Luc (R8411) (co-treatment of compound and virus, dose series), “strong inhibition of HSV-1 proliferation in a dose dependent manner”. In addition, the “efficacy compared with acyclovir” value with HSV1-Luc (R8411) (HSV1-Luc, acyclovir 10 μM) is given as “slightly higher level”. The “concentration from which inhibition of HSV-1 (HSV1-Luc) proliferation starts” value in the assay on HSV1-Luc (R8411) (in vitro, luciferase signal) worked out at 1 µM. For the same compound, the “efficacy relative to SD-29” value in the assay with HSV1-Luc (R8411) (starting concentration, HSV-1 luciferase signal) came out at 100 times.
As to `Nn1c(S)nnc1-c1ccc(F)cc1` [SD-29], in assay [1], the “ABA-induced RACK1A Y248 phosphorylation” value is given as “prevented the ABA-induced Y248 phosphorylation”. Also, in the assay with HSV1-Luc (R8411), the “HSV-1 proliferation (luciferase signal)” value is reported as “much less efficacy”.
